≈ marks a conversion by molar mass, not a printed value. Like-named read-outs stand apart in the source and are kept apart here.
Tests used:
[1] = tested on: Acinetobacter calcoaceticus ATCC 15473; test: Antibacterial activity, MIC; assay type: cell-based; settings: ATCC15473, ATCC 15473, agar two-fold dilution, 37° C., 20 hours, read-out: MIC
Summary of the method: (§1)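 Agar two-fold dilution method: compound serially diluted two-fold in Mueller-Hinton agar, spotted with 2 μl of a 10^7 CFU/ml inoculum of each standard strain, then incubated at 37 °C for 20 h.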

[2] = tested on: Bacillus cereus ATCC 11778; test: Antibacterial activity, MIC; assay type: cell-based; settings: ATCC11778, ATCC 11778, agar two-fold dilution, 37° C., 20 hours, read-out: MIC
Summary of the method: as §1

[3] = tested on: Bacillus megaterium ATCC 9885; test: Antibacterial activity, MIC; assay type: cell-based; settings: Priestia megaterium, ATCC9885; ATCC 9885; agar two-fold dilution, 37° C., 20 hours; read-out: MIC
Summary of the method: as §1

[4] = tested on: Citrobacter freundii ATCC 8090; test: Antibacterial activity, MIC; assay type: cell-based; settings: ATCC8090, ATCC 8090, agar two-fold dilution, 37° C., 20 hours, read-out: MIC
Summary of the method: as §1

[5] = tested on: Enterobacter aerogenes ATCC 29751; test: Antibacterial activity, MIC; assay type: cell-based; settings: Klebsiella aerogenes, ATCC29751; ATCC 29751; agar two-fold dilution, 37° C., 20 hours; read-out: MIC
Summary of the method: as §1

[6] = tested on: Enterobacter cloacae ATCC 27508; test: Antibacterial activity, MIC; assay type: cell-based; settings: ATCC27508, ATCC 27508, agar two-fold dilution, 37° C., 20 hours, read-out: MIC
Summary of the method: as §1

[7] = tested on: Escherichia coli ATCC 10536; test: Antibacterial activity, MIC; assay type: cell-based; settings: ATCC10536, agar two-fold dilution, 37° C., 20 hours
Summary of the method: as §1

[8] = tested on: Escherichia coli ATCC 25922; test: Antibacterial activity, MIC; assay type: cell-based; settings: ATCC25922, agar two-fold dilution, 37° C., 20 hours
Summary of the method: as §1

[9] = tested on: Klebsiella pneumoniae ATCC 10031; test: Antibacterial activity, MIC; assay type: cell-based; settings: ATCC10031, ATCC 10031, agar two-fold dilution, 37° C., 20 hours, read-out: MIC
Summary of the method: as §1

[10] = tested on: Micrococcus luteus ATCC 9341; test: Antibacterial activity, MIC; assay type: cell-based; settings: ATCC9341, ATCC 9341, agar two-fold dilution, 37° C., 20 hours, read-out: MIC
Summary of the method: as §1

[11] = tested on: Morganella morganii ATCC 8076h; test: Antibacterial activity, MIC; assay type: cell-based; settings: ATCC8076H, agar two-fold dilution, 37° C., 20 hours
Summary of the method: as §1

[12] = tested on: Proteus mirabilis ATCC 25933; test: Antibacterial activity, MIC; assay type: cell-based; settings: ATCC25933, ATCC 25933, agar two-fold dilution, 37° C., 20 hours, read-out: MIC
Summary of the method: as §1

[13] = tested on: Proteus vulgaris ATCC 6059; test: Antibacterial activity, MIC; assay type: cell-based; settings: ATCC6059, ATCC 6059, agar two-fold dilution, 37° C., 20 hours, read-out: MIC
Summary of the method: as §1

[14] = tested on: Providencia rettgeri ATCC 9250; test: Antibacterial activity, MIC; assay type: cell-based; settings: ATCC9250, agar two-fold dilution, 37° C., 20 hours
Summary of the method: as §1

[15] = tested on: Pseudomonas aeruginosa ATCC 10145; test: Antibacterial activity, MIC; assay type: cell-based; settings: ATCC10145, ATCC 10145, agar two-fold dilution, 37° C., 20 hours, read-out: MIC
Summary of the method: as §1

[16] = tested on: Pseudomonas aeruginosa ATCC 25619; test: Antibacterial activity, MIC; assay type: cell-based; settings: ATCC25619, ATCC 25619, agar two-fold dilution, 37° C., 20 hours, read-out: MIC
Summary of the method: as §1

[17] = tested on: Pseudomonas aeruginosa ATCC 27853; test: Antibacterial activity, MIC; assay type: cell-based; settings: ATCC27853, ATCC 27853, agar two-fold dilution, 37° C., 20 hours, read-out: MIC
Summary of the method: as §1

[18] = tested on: Salmonella typhimurium ATCC 14028; test: Antibacterial activity, MIC; assay type: cell-based; settings: Salmonella enterica; ATCC 14028; agar two-fold dilution, 37° C., 20 hours; read-out: MIC
Summary of the method: as §1

[19] = tested on: Serratia marcescens ATCC 27117; test: Antibacterial activity, MIC; assay type: cell-based; settings: ATCC27117, ATCC 27117, agar two-fold dilution, 37° C., 20 hours, read-out: MIC
Summary of the method: as §1

[20] = tested on: Shigella flexneri ATCC 11836; test: Antibacterial activity, MIC; assay type: cell-based; settings: ATCC11836, agar two-fold dilution, 37° C., 20 hours
Summary of the method: as §1

[21] = tested on: Shigella sonnei ATCC 11060; test: Antibacterial activity, MIC; assay type: cell-based; settings: ATCC11060, ATCC 11060, agar two-fold dilution, 37° C., 20 hours, read-out: MIC
Summary of the method: as §1

[22] = tested on: Staphylococcus aureus ATCC 10537; test: Antibacterial activity, MIC; assay type: cell-based; settings: ATCC10537, ATCC 10537, agar two-fold dilution, 37° C., 20 hours, read-out: MIC
Summary of the method: as §1

[23] = tested on: Staphylococcus aureus ATCC 6538p; test: Antibacterial activity, MIC; assay type: cell-based; settings: ATCC6538P, ATCC 6538p, agar two-fold dilution, 37° C., 20 hours, read-out: MIC
Summary of the method: as §1

[24] = tested on: Staphylococcus epidermidis ATCC 12228; test: Antibacterial activity, MIC; assay type: cell-based; settings: ATCC12228, ATCC 12228, agar two-fold dilution, 37° C., 20 hours, read-out: MIC
Summary of the method: as §1

Escherichia coli = test: Antibacterial activity against clinically isolated strains, MIC; assay type: cell-based; settings: 38 clinical isolates, broth microdilution test
[25] = tested on: Staphylococcus aureus methicillin susceptible; test: as above; assay type: cell-based; settings: methicillin susceptible, 42 clinical isolates, broth microdilution test; for MIC90: read-out: MIC 90%
Pseudomonas aeruginosa = test: as above; assay type: cell-based
[26] = In-vivo absorbency (plasma concentrations & pharmacokinetic parameters); set-up: species or system SD rat (male); settings: plasma, SD male rat, iv 20 mg/kg, read-out: Plasma Conc.
[27] = 54 clinical isolates, broth microdilution test

SMILES	MIC [1]	MIC [2]	MIC [3]	MIC [4]	MIC [5]	MIC [6]	MIC [7]	MIC [8]	MIC [9]	MIC [10]	MIC [11]	MIC [12]	MIC [13]	MIC [14]	MIC [15]	MIC [16]	MIC [17]	MIC [18]	MIC [19]	MIC [20]	also measured
C[n+]1c(N)cc(N)nc1SCC1=C(C(=O)[O-])N2C(=O)C(NC(=O)/C(=N\OC(C)(C)C(=O)O)c3csc(N)n3)[C@H]2SC1 (stereo partly drawn) [Compound I-1, 7-[(Z)-2-(2-aminothiazol-4-yl)-2-(2-carboxyprop-2-oxyimino)acetamido]-3-(4,6-diamino-1-methylpyrimidinium-2-yl) thiomethyl-3-cephem-4-carboxylate]	2 µg/mL (≈ 3.21 µM)	64 µg/mL (≈ 103 µM)	0.25 µg/mL (≈ 0.401 µM)	0.063 µg/mL (≈ 0.101 µM)	1 µg/mL (≈ 1.6 µM)	0.016 µg/mL (≈ 0.0257 µM)	0.063 µg/mL (≈ 0.101 µM)	0.063 µg/mL (≈ 0.101 µM)	0.063 µg/mL (≈ 0.101 µM)	0.25 µg/mL (≈ 0.401 µM)	≤ 0.008 µg/mL	0.031 µg/mL (≈ 0.0497 µM)	0.031 µg/mL (≈ 0.0497 µM)	≤ 0.008 µg/mL	2 µg/mL (≈ 3.21 µM)	1 µg/mL (≈ 1.6 µM)	1 µg/mL (≈ 1.6 µM)	0.13 µg/mL (≈ 0.208 µM)	0.063 µg/mL (≈ 0.101 µM)	0.031 µg/mL (≈ 0.0497 µM)	MIC [21]: 0.031 µg/mL (≈ 0.0497 µM); MIC [22]: 1 µg/mL (≈ 1.6 µM); MIC [23]: 2 µg/mL (≈ 3.21 µM); MIC [24]: 1 µg/mL (≈ 1.6 µM); MIC50 (Escherichia coli): 0.063 µg/mL (≈ 0.101 µM); MIC90 (Escherichia coli): 0.13 µg/mL (≈ 0.208 µM); MIC50 [25]: 2 µg/mL (≈ 3.21 µM); MIC90 [25]: 2 µg/mL (≈ 3.21 µM); MIC50 (Pseudomonas aeruginosa; [27]): 1 µg/mL (≈ 1.6 µM); MIC90 (Pseudomonas aeruginosa; 54 clinical isolates, broth microdilution test, read-out: MIC 90%): 4 µg/mL (≈ 6.41 µM); concentration at 1 min [26]: 152 µg/mL; concentration at 2.5 min [26]: 101 µg/mL; concentration at 5 min [26]: 65 µg/mL; concentration at 10 min [26]: 45 µg/mL; concentration at 20 min [26]: 29 µg/mL; concentration at 40 min [26]: 14 µg/mL
C[n+]1c(N)cc(N)nc1SCC1=C(C(=O)[O-])N2C(=O)C(NC(=O)/C(=N\OCC(=O)O)c3csc(N)n3)C2SC1 (stereo not drawn) [Compound I-7]	4 µg/mL (≈ 6.72 µM)	128 µg/mL (≈ 215 µM)	0.5 µg/mL (≈ 0.839 µM)	0.031 µg/mL (≈ 0.052 µM)	0.5 µg/mL (≈ 0.839 µM)	≤ 0.008 µg/mL	0.016 µg/mL (≈ 0.0269 µM)	0.016 µg/mL (≈ 0.0269 µM)	0.016 µg/mL (≈ 0.0269 µM)	0.5 µg/mL (≈ 0.839 µM)	≤ 0.008 µg/mL	0.016 µg/mL (≈ 0.0269 µM)	0.016 µg/mL (≈ 0.0269 µM)	≤ 0.008 µg/mL	4 µg/mL (≈ 6.72 µM)	2 µg/mL (≈ 3.36 µM)	2 µg/mL (≈ 3.36 µM)	0.063 µg/mL (≈ 0.106 µM)	0.016 µg/mL (≈ 0.0269 µM)	≤ 0.008 µg/mL	MIC [21]: 0.016 µg/mL (≈ 0.0269 µM); MIC [22]: 2 µg/mL (≈ 3.36 µM); MIC [23]: 2 µg/mL (≈ 3.36 µM); MIC [24]: 1 µg/mL (≈ 1.68 µM); MIC50 (Escherichia coli): 0.016 µg/mL (≈ 0.0269 µM); MIC90 (Escherichia coli): 0.063 µg/mL (≈ 0.106 µM); MIC50 [25]: 4 µg/mL (≈ 6.72 µM); MIC90 [25]: 4 µg/mL (≈ 6.72 µM); MIC90 (Pseudomonas aeruginosa): 16 µg/mL (≈ 26.9 µM); MIC50 (Pseudomonas aeruginosa; [27]): 4 µg/mL (≈ 6.72 µM); concentration at 1 min [26]: 128 µg/mL; concentration at 2.5 min [26]: 83 µg/mL; concentration at 5 min [26]: 59 µg/mL; concentration at 10 min [26]: 43 µg/mL; concentration at 20 min [26]: 29 µg/mL; concentration at 40 min [26]: 15 µg/mL
CCC[n+]1c(N)cc(N)nc1SCC1=C(C(=O)[O-])N2C(=O)C(NC(=O)/C(=N\OC(C)C(=O)O)c3csc(N)n3)C2SC1 (stereo not drawn) [Compound I-45]	8 µg/mL (≈ 12.5 µM)	64 µg/mL (≈ 100 µM)	0.5 µg/mL (≈ 0.784 µM)	0.063 µg/mL (≈ 0.0988 µM)	1 µg/mL (≈ 1.57 µM)	0.016 µg/mL (≈ 0.0251 µM)	0.063 µg/mL (≈ 0.0988 µM)	0.063 µg/mL (≈ 0.0988 µM)	0.063 µg/mL (≈ 0.0988 µM)	0.5 µg/mL (≈ 0.784 µM)	≤ 0.008 µg/mL	0.063 µg/mL (≈ 0.0988 µM)	0.063 µg/mL (≈ 0.0988 µM)	≤ 0.008 µg/mL	4 µg/mL (≈ 6.27 µM)	1 µg/mL (≈ 1.57 µM)	2 µg/mL (≈ 3.14 µM)	0.25 µg/mL (≈ 0.392 µM)	0.13 µg/mL (≈ 0.204 µM)	0.031 µg/mL (≈ 0.0486 µM)	MIC [21]: 0.063 µg/mL (≈ 0.0988 µM); MIC [22]: 2 µg/mL (≈ 3.14 µM); MIC [23]: 2 µg/mL (≈ 3.14 µM); MIC [24]: 1 µg/mL (≈ 1.57 µM); MIC50 (Escherichia coli): 0.13 µg/mL (≈ 0.204 µM); MIC90 (Escherichia coli): 0.13 µg/mL (≈ 0.204 µM); MIC50 [25]: 2 µg/mL (≈ 3.14 µM); MIC90 [25]: 2 µg/mL (≈ 3.14 µM); MIC90 (Pseudomonas aeruginosa): 16 µg/mL (≈ 25.1 µM); MIC50 (Pseudomonas aeruginosa; [27]): 4 µg/mL (≈ 6.27 µM); concentration at 1 min [26]: 147 µg/mL; concentration at 2.5 min [26]: 84 µg/mL; concentration at 5 min [26]: 67 µg/mL; concentration at 10 min [26]: 52 µg/mL; concentration at 20 min [26]: 29 µg/mL; concentration at 40 min [26]: 16 µg/mL
